The target of series [1] is T1, ATX (Homo sapiens, UniProt Q13822).
T1 construct: ATX activity was detected by detecting LPA production in pooled human plasma; from tissue; host or cells: pooled human plasma (heparin-anticoagulated whole blood, centrifuged)
Nature of the series: ATX inhibitory activity: LPA production in pooled human plasma, LC-MS-MS. In kind it is biochemical. The conditions noted are these: 37° C. 2 h. On the procedure: Experimental subject: compounds to be tested.
ATX activity was detected by detecting LPA production in pooled human plasma. Whole blood anticoagulated with heparin was collected and centrifuged, and then plasma was collected. 5-μL gradient dilution of the compound to be tested or DMSO was added to 95-μL plasma, incubated at 37° C. for 2 h, then a stop solution (40 mM disodium hydrogen phosphate buffer, containing a buffer solution (containing 30 mM citric acid, pH=4)) was added. LPA in plasma was detected by LC-MS-MS before and after incubation.
LPA (18:2) and (20:4) LC-MS-MS analytical method
Using a 1.5 mL EP tube, 3.0 μL of each of the working solutions for standard curve and quality control was taken and added to 27.0 μL of water. After homogeneously mixing by vortex, 400 μL of internal standard solution was added. After homogeneously mixing by vortex, the mixture was centrifuged at 4° C. for 10 min. 180 μL of supernatant was taken and added into a 96-well plate, waiting for sample injection.
10 μL of the compound to be tested (10 mg/ml) was precisely pipetted into an EP tube, 990 μL of DMSO solution was added, and the mixture was vortexed to completely dissolve to obtain a solution (100 μg/mL).
Inhibition rate of ATX receptor activity was calculated in the following way: inhibition rate %=((LPAc−LPA0)−(LPAi−LPA0))/(LPAc−LPA0)*100%, wherein LPAc was the LPA content in plasma after DMSO was added and incubated for 2 h, LPA0 was the LPA content in plasma before DMSO was added for incubation, and LPAi was the LPA content in plasma after test compound was added and incubated for 2 h.

Series [2] can be described thus: Pharmacokinetic experiment in mice (single dose iv and intragastric). Format: in vivo. The conditions noted are these: mouse, plasma, male C57 mice; for bioavailability: po 10 mg/kg vs iv 2.5 mg/kg, read-out: F (bioavailability). On the procedure: Experimental objective: In this experiment, a single dose of each test compound was administered to C57 mice intravenously and intragastrically, the concentrations of the compounds 35, 37 and 38 in plasma of the mice were measured, and the pharmacokinetic characteristics and bioavailability of each test compound in mice were evaluated.
Experimental animals: Male C57 mice, 20-25 g, 6-8 weeks old, 18 mice/compound. The experimental animals were purchased from CHENGDU DOSSY EXPERIMENTAL ANIMALS CO., LTD.
Experimental method: On the day of the experiment, 18 C57 mice were randomly grouped according to their body weight. The animals were fasted with water available for 12 to 14 hours one day before the administration of a test compound, and were fed 4 hours after the administration.
Before and after the administration, 0.08 ml of blood was taken from the orbit of the […] under isoflurane anesthesia, and placed in an EDTAK2 centrifuge tube. Centrifugation was carried out at 5000 rpm at 4° C. for 10 min and the plasma was collected.
Time points for plasma collection in G1 group: 0, 5, 15, 30 min, 1, 2, 4, 6, 8, and 24 h.
Time points for plasma collection in G2 group: 0, 15, 30 min, 1, 2, 4, 6, 8, and 24 h.
Before analysis and detection, all samples were stored at −80° C.
30 μL of each of plasma sample, standard curve and quality control sample was taken, and 200 μL of acetonitrile solution containing internal standard was added, and the mixture was homogeneously mixed by vortex, and then centrifuged at 12000 rpm for 10 min at 4° C. The supernatant was taken and added into a 96-well plate and analyzed by LC-MS/MS.
The main pharmacokinetic parameters were analyzed by non-compartmental model using WinNonlin 8.0 software.

Setting [3] is: LPA 18:2 readout, read-out: Inhibitory activity against ATX receptor, LPA 18:2 IC50.
Where [4] appears, read: LPA 20:4 readout, read-out: Inhibitory activity against ATX receptor, LPA 20:4 IC50.

Each structure is given as a SMILES string. Where two headings read alike, the source gives them in different places.

For the molecule `C[C@@](F)(C(=O)N1CCc2[nH]nnc2C1)c1nnc(-c2cnc(NC3Cc4ccccc4C3)nc2)o1` (single isomer, unassigned) [Compound 38], the IC50 (commonly the concentration at which inhibition is half-maximal) in series [1] (setting [3]) was 5.53 nM. Moreover, the IC50 in series [1] (setting [4]) came out at 5.88 nM. In addition, the bioavailability (as a rule, the share of a dose that reaches the circulation, judged against a reference dose that is usually intravenous) in series [2] came to 59.3%. Moreover, in series [2] (iv 2.5 mg/kg), the AUC (in general, concentration integrated over time) stood at 1480 ng·h/mL; the C0 was determined as 3330 ng/mL; the half-life (as a rule, the time needed for the level to fall by half in the phase considered) is 33.1 min. In addition, in series [2] (po 10 mg/kg), the AUC came to 3500 ng·h/mL, the Cmax (commonly the maximum level reached in the sampled fluid or tissue) was determined as 3590 ng/mL, the Tmax (commonly the time from dosing to the highest level) came out at 15 min and the half-life was 48.3 min.

For `O=C(Cc1nnc(-c2cnc(N[C@@H]3Cc4ccc(C(F)(F)F)cc4C3)nc2)o1)N1CCc2[nH]nnc2C1` [Compound 35, (R)-1-(1,4,6,7-tetrahydro-5H-[1,2,3]triazolo[4,5-c]pyridin-5-yl)-2-(5-(2-((5-(trifluoromethyl)-2,3-dihydro-1H-inden-2-yl)amino)pyrimidin-5-yl)-1,3,4-oxadiazol-2-yl)ethan-1-one], the IC50 in series [1] (setting [3]) came to 2.17 nM. Besides, the IC50 in series [1] (setting [4]) was found to be 2.25 nM. Besides, in series [2], the bioavailability was determined as 35.6%. Further, in series [2] (iv 2.5 mg/kg), the AUC was found to be 6780 ng·h/mL, the C0 is 6850 ng/mL and the half-life is 61.2 min. Also, in series [2] (po 10 mg/kg), the AUC was 9650 ng·h/mL, the Cmax was found to be 3370 ng/mL, the Tmax stood at 30 min and the half-life is 56.8 min.

With `O=C(Cc1nnc(-c2cnc(N[C@@H]3Cc4ccc(C(F)F)cc4C3)nc2)o1)N1CCc2[nH]nnc2C1` [Compound 37, (R)-2-(5-(2-((5-(difluoromethyl)-2,3-dihydro-1H-inden-2-yl)amino)pyrimidin-5-yl)-1,3,4-oxadiazol-2-yl)-1-(1,4,6,7-tetrahydro-5H-[1,2,3]triazolo[4,5-c]pyridin-5-yl)ethan-1-one], in series [1] (setting [3]), the IC50 stood at 4.84 nM. The IC50 in series [1] (setting [4]) came out at 4.78 nM. In addition, in series [2], the bioavailability is 17.8%. Further, in series [2] (iv 2.5 mg/kg), the AUC came to 3790 ng·h/mL, the C0 was 6640 ng/mL and the half-life is 53.3 min. In addition, in series [2] (po 10 mg/kg), the AUC was 2700 ng·h/mL, the Cmax is 1600 ng/mL, the Tmax was found to be 15 min and the half-life was 78.6 min.

(Values after patent US20230069174A1, “NITROGEN-CONTAINING HETEROCYCLIC AUTOTAXIN INHIBITOR, AND COMPOSITION CONTAINING SAME AND USE THEREOF” (SICHUAN HAISCO PHARMACEUTICAL CO., LTD., priority 2019, published 2023).)
